# According to PubChem BioAssay (NCI):
#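 How tested: cells in 96-well plates exposed to compound for 48 hours at five concentrations. TGI denotes the concentration required for complete inhibition of growth.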
# Tests used:
# Experiment in all cases: NCI tumour cell line growth inhibition, 48 h
# [1] = test system: MDA-N
# [2] = test system: COLO 205 colon
# [3] = test system: NCI-H460 lung
# [4] = test system: K-562 leukemia
# [5] = test system: SK-OV-3 ovarian
# [6] = test system: NCI-H23 lung
# [7] = test system: EKVX NSCLC
# [8] = test system: SNB-19 CNS
# [9] = test system: SNB-75 CNS
# [10] = test system: HS 578T breast
# [11] = test system: HCC-2998 colon
# [12] = test system: HCT-116 colon
# [13] = test system: UACC-257 melanoma
# [14] = test system: MDA-MB-435
# [15] = test system: SK-MEL-2 melanoma
# [16] = test system: DU-145 prostate
# [17] = test system: HL-60(TB) leukemia
# [18] = test system: SK-MEL-28 melanoma
# [19] = test system: T-47D breast
# [20] = test system: MDA-MB-231 breast
# [21] = test system: BT-549 breast
# [22] = test system: CCRF-CEM leukemia
# [23] = test system: HOP-92 NSCLC
# [24] = test system: OVCAR-4 ovarian
# [25] = test system: NCI/ADR-RES ovarian
# [26] = test system: NCI-H226 lung
# [27] = test system: LOX IMVI melanoma
# [28] = test system: IGROV1 ovarian
# [29] = test system: OVCAR-5 ovarian
# [30] = test system: OVCAR-3 ovarian
# [31] = test system: UACC-62 melanoma
# [32] = test system: HOP-62 NSCLC
# [33] = test system: KM12 colon
# [34] = test system: M14 melanoma
# [35] = test system: TK-10 renal
# [36] = test system: SF-295 CNS
# [37] = test system: NCI-H522 lung
# [38] = test system: MOLT-4 leukemia
# [39] = test system: U251 CNS
# [40] = test system: A549 NSCLC
# [41] = test system: SN12C renal
# [42] = test system: MALME-3M melanoma
# [43] = test system: MCF7 breast
# [44] = test system: UO-31 renal
# [45] = test system: SF-539 CNS
# [46] = test system: ACHN renal
# [47] = test system: A498 renal
# [48] = test system: SW-620 colon
# [49] = test system: HT29 colon
# [50] = test system: SK-MEL-5 melanoma
# [51] = test system: HCT-15 colon
# [52] = test system: RXF 393 renal
# [53] = test system: OVCAR-8 ovarian
# [54] = test system: 786-0 renal
# [55] = test system: SF-268 CNS
# [56] = test system: PC-3 prostate
# [57] = test system: CAKI-1 renal
# [58] = test system: RPMI-8226 leukemia
# [59] = test system: SR leukemia
smiles,measurement,setting,value
CC[C@]12C=CCN3CC[C@@]4(c5cc(Br)c(OC)cc5N(C)[C@H]4[C@@](O)(C(=O)NN)[C@@H]1O)[C@@H]32,TGI,[1],> 100 µM
same,TGI,[2],> 100 µM
same,TGI,[3],> 100 µM
same,TGI,[4],> 100 µM
same,TGI,[5],> 100 µM
same,TGI,[6],> 100 µM
same,TGI,[7],> 100 µM
same,TGI,[8],> 100 µM
same,TGI,[9],43.6 µM
same,TGI,[10],> 100 µM
same,TGI,[11],> 100 µM
same,TGI,[12],> 100 µM
same,TGI,[13],> 100 µM
same,TGI,[14],> 100 µM
same,TGI,[15],70.6 µM
same,TGI,[16],> 100 µM
same,TGI,[17],> 100 µM
same,TGI,[18],> 100 µM
same,TGI,[19],> 100 µM
same,TGI,[20],> 100 µM
same,TGI,[21],> 100 µM
same,TGI,[22],> 100 µM
same,TGI,[23],> 100 µM
same,TGI,[24],> 100 µM
same,TGI,[25],> 100 µM
same,TGI,[26],> 100 µM
same,TGI,[27],> 100 µM
same,TGI,[28],> 100 µM
same,TGI,[29],> 100 µM
same,TGI,[30],> 100 µM
same,TGI,[31],> 100 µM
same,TGI,[32],> 100 µM
same,TGI,[33],> 100 µM
same,TGI,[34],> 100 µM
same,TGI,[35],> 100 µM
same,TGI,[36],> 100 µM
same,TGI,[37],> 100 µM
same,TGI,[38],> 100 µM
same,TGI,[39],> 100 µM
same,TGI,[40],> 100 µM
same,TGI,[41],> 100 µM
same,TGI,[42],> 100 µM
same,TGI,[43],> 100 µM
same,TGI,[44],> 100 µM
same,TGI,[45],69.3 µM
same,TGI,[46],> 100 µM
same,TGI,[47],> 100 µM
same,TGI,[48],> 100 µM
same,TGI,[49],> 100 µM
same,TGI,[50],> 100 µM
same,TGI,[51],> 100 µM
same,TGI,[52],99.2 µM
same,TGI,[53],> 100 µM
same,TGI,[54],> 100 µM
same,TGI,[55],> 100 µM
same,TGI,[56],> 100 µM
same,TGI,[57],> 100 µM
C1CCC2(CC1)O[C@@H]1[C@@H](O2)[C@@H](O[C@H]2O[C@@H]3COC4(CCCCC4)O[C@H]3[C@@H]3OC4(CCCCC4)O[C@@H]23)O[C@@H]2COC3(CCCCC3)O[C@@H]12,TGI,[1],> 100 µM
same,TGI,[2],> 100 µM
same,TGI,[4],> 100 µM
same,TGI,[5],> 100 µM
same,TGI,[6],> 100 µM
same,TGI,[7],> 100 µM
same,TGI,[8],> 100 µM
same,TGI,[9],> 100 µM
same,TGI,[10],> 100 µM
same,TGI,[12],> 100 µM
same,TGI,[13],> 100 µM
same,TGI,[14],> 100 µM
same,TGI,[15],> 100 µM
same,TGI,[16],> 100 µM
same,TGI,[17],> 100 µM
same,TGI,[18],> 100 µM
same,TGI,[58],> 100 µM
same,TGI,[19],> 100 µM
same,TGI,[20],> 100 µM
same,TGI,[21],> 100 µM
same,TGI,[22],> 100 µM
same,TGI,[23],> 100 µM
same,TGI,[24],> 100 µM
same,TGI,[25],> 100 µM
same,TGI,[27],> 100 µM
same,TGI,[28],> 100 µM
same,TGI,[29],> 100 µM
same,TGI,[30],> 100 µM
same,TGI,[31],> 100 µM
same,TGI,[32],> 100 µM
same,TGI,[33],> 100 µM
same,TGI,[34],> 100 µM
same,TGI,[35],> 100 µM
same,TGI,[36],> 100 µM
same,TGI,[37],> 100 µM
same,TGI,[38],> 100 µM
same,TGI,[39],> 100 µM
same,TGI,[40],> 100 µM
same,TGI,[41],> 100 µM
same,TGI,[42],> 100 µM
same,TGI,[43],> 100 µM
same,TGI,[44],> 100 µM
same,TGI,[45],> 100 µM
same,TGI,[46],> 100 µM
same,TGI,[47],> 100 µM
same,TGI,[48],> 100 µM
same,TGI,[49],> 100 µM
same,TGI,[50],> 100 µM
same,TGI,[52],> 100 µM
same,TGI,[53],> 100 µM
same,TGI,[54],> 100 µM
same,TGI,[55],> 100 µM
same,TGI,[56],> 100 µM
same,TGI,[57],> 100 µM
CC(C(=O)c1ccccc1)C(c1ccccc1)N1CCOCC1 (stereo not drawn),TGI,[59],> 100 µM
same,TGI,[1],> 100 µM
same,TGI,[2],> 100 µM
same,TGI,[3],> 100 µM
same,TGI,[4],> 100 µM
same,TGI,[5],> 100 µM
same,TGI,[6],> 100 µM
same,TGI,[7],> 100 µM
same,TGI,[8],> 100 µM
same,TGI,[9],> 100 µM
same,TGI,[10],> 100 µM
same,TGI,[12],> 100 µM
same,TGI,[13],> 100 µM
same,TGI,[14],> 100 µM
same,TGI,[15],> 100 µM
same,TGI,[16],> 100 µM
same,TGI,[17],> 100 µM
same,TGI,[18],> 100 µM
same,TGI,[58],> 100 µM
same,TGI,[19],> 100 µM
same,TGI,[20],> 100 µM
same,TGI,[21],> 100 µM
same,TGI,[22],> 100 µM
same,TGI,[23],> 100 µM
same,TGI,[24],> 100 µM
same,TGI,[25],> 100 µM
same,TGI,[26],> 100 µM
same,TGI,[27],> 100 µM
same,TGI,[28],> 100 µM
same,TGI,[29],> 100 µM
same,TGI,[30],> 100 µM
same,TGI,[31],> 100 µM
same,TGI,[32],> 100 µM
same,TGI,[33],> 100 µM
same,TGI,[34],> 100 µM
same,TGI,[35],> 100 µM
same,TGI,[36],> 100 µM
same,TGI,[37],> 100 µM
same,TGI,[38],> 100 µM
same,TGI,[39],> 100 µM
same,TGI,[40],> 100 µM
same,TGI,[41],> 100 µM
same,TGI,[42],> 100 µM
same,TGI,[43],> 100 µM
same,TGI,[45],> 100 µM
same,TGI,[46],> 100 µM
same,TGI,[47],> 100 µM
same,TGI,[48],> 100 µM
same,TGI,[49],> 100 µM
same,TGI,[50],> 100 µM
same,TGI,[51],> 100 µM
same,TGI,[52],> 100 µM
same,TGI,[53],> 100 µM
same,TGI,[54],> 100 µM
same,TGI,[55],> 100 µM
same,TGI,[56],> 100 µM
same,TGI,[57],> 100 µM
